Read-outs that look alike come from different tables or passages of the source.
Experiments:
5‐HT1A receptor [1] = molecular target: T1, 5‐HT1A receptor (Rattus norvegicus, UniProt P19327); assay: 5‐HT1A receptor activation in the [35S]GTP‐γ‐S assay (hippocampal membranes); type: biochemical; conditions: [35S]GTPγS; for Emax / Emax (%) ± SEM, 5‐HT1A receptor G‐protein stimulation / pEC50, 5‐HT1A receptor G‐protein stimulation / EC50 (95% CI, μM), 5‐HT1A receptor G‐protein stimulation / EC50: rat hippocampal membranes; for Emax: read-out: Emax (%) ± SEM, 5‐HT1A receptor G‐protein stimulation; for agonist activity for the 5‐HT1A receptor (classification in words): efficacy compared with 8‐OH‐DPAT
T1 construct: 80 μg of hippocampal membrane suspension (the 5‐HT1A assay); from tissue; host or cells: rat (Sprague-Dawley) hippocampus membranes
T1 sequence (P19327 1-422): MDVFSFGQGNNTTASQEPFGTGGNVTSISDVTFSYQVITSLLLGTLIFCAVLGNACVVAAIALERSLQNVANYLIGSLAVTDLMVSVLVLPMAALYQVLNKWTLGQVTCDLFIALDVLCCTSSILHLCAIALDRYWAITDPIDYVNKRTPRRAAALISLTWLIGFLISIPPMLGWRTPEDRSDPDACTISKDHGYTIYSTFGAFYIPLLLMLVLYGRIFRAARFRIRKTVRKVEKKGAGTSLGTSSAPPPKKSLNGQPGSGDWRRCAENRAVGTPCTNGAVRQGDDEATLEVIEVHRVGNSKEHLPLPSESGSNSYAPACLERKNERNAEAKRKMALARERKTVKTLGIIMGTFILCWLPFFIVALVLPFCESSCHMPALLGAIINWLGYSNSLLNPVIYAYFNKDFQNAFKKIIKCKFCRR
Protocol: Seven compound concentrations equally spaced on a log scale (10–4 M to 10–10 M) were incubated in duplicate with hippocampal membrane preparations (5μg per well) in assay buffer (50 mM Tris‐HCl, pH = 7.4, 1 mM EGTA, 3 mM MgCl2, 100 mM NaCl, and 30 μM GDP) and 0.08 nM [^35S]GTP‐γ‐S (specific activity: 1250 Ci mmole^−1, Revvity). Nonspecific binding was determined with 10μM of unlabeled GTP‐γ‐S. The final DMSO concentration in the assay was 5%. The reaction mixture was incubated for 90 min. at 30 °C on an orbital shaker set at 250 rpm. Next, the reaction mixture was deposited under vacuum with the FilterMate Harvester (Revvity, USA) onto Unifilter GF/C Plates (Revvity, MA, USA) presoaked with wash buffer (50 mM Tris‐HCl, pH = 7.4). The wells were then rapidly washed with 2 mL of wash buffer. Filter plates were dried overnight at room temperature. Once completely dry, 35 μl of MicroScint PS (Revvity, MA, USA) scintillation fluid was added to each well. Radioactivity was counted in a MicroBeta2 LumiJet scintillation counter (Revvity, MA, USA). Data were analyzed with GraphPad Prism 5.0 software (GraphPad Software, San Diego California USA, www.graphpad.com). The curves were fitted with three‐parameter non‐linear regression model.

5‐HT2A receptor [2] = molecular target: T2, 5‐HT2A receptor (Rattus norvegicus, UniProt P14842); assay: 5‐HT2A competition binding assay ([3H]ketanserin, frontal cortex membranes); parameters: from tissue; host or cells: rat (Sprague-Dawley) frontal cortex membranes; conditions: 1 nM [3H]ketanserin
T2 sequence (P14842 whole entry): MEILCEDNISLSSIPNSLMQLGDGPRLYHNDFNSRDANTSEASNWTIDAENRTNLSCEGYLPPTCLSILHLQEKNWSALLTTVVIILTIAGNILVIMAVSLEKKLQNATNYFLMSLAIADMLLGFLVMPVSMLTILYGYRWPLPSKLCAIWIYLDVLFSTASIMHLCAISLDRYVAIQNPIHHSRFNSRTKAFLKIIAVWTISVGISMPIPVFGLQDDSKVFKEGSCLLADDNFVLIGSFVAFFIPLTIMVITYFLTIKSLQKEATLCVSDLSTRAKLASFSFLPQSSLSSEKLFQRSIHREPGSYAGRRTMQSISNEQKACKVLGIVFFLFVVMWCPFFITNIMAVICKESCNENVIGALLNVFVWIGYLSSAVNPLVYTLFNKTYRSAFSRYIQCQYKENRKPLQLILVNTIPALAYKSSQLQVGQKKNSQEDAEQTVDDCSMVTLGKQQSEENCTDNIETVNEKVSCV

5‐HT1A receptor [3] = molecular target: T1, 5‐HT1A receptor; assay: 5‐HT1A competition binding assay ([3H]8‐OH‐DPAT, hippocampal membranes); conditions: 1 nM [3H]8‐OH‐DPAT
Protocol: (§1) Sprague‐Dawley rats were sacrificed by isoflurane overdose. Brains were rapidly removed and placed on ice. Hippocampi (for the 5‐HT1A assay) and frontal cortices (for the 5‐HT2A and 5‐HT2C assays) were dissected on a Petri dish. The tissue from 10 rats was homogenized in 30 vol. homogenization buffer (50 mM Tris–HCl, […], 1 mM EDTA, 1 mM dithiothreitol) with a handheld Teflon‐glass homogenizer. The homogenate was centrifuged at 48,000 × g at 4 °C for 15 min. The pellet was suspended and homogenized in the homogenization buffer and incubated for 10 min. at 36 °C. The centrifugation and suspension steps were repeated twice. The final pellet was homogenized in 5 vol. 50 mM Tris–HCl, pH = 7.4 buffer and stored at −80 °C for no longer than 6 months. […] For the 5‐HT2C assay, compounds were incubated in duplicate with 5 nM [^3H]mesulergine (specific activity: 80.2 Ci mmol^−1, Revvity, MA, USA) for 60 min. at 36 °C in a 50 mM Tris‐HCl (pH 7.4) buffer, supplemented with 5 mM MgCl2, 140 mM NaCl, 1 mM DTT, 1 mM CaCl2, 10 μM pargyline and 160μg of the frontal cortex membrane suspension. Non‐specific binding was determined with 10μM serotonin. The final DMSO concentration in the assay was 5%. After incubation, the reaction mixture was deposited onto Unifilter GF/C plates (Revvity, MA, USA) presoaked in 0.4% PEI (or 0.4% PEI and 0.5% Triton X‐100 for the 5‐HT2C assay) for 1 h with the FilterMate‐96 Harvester (Revvity, MA, USA). Then, each well was washed with 2 mL of 50 mM Tris–HCl (pH 7.4) buffer to separate bound ligands from free and the plates were left to dry overnight. Then, 35μl of Microscint‐20 scintillation fluid (Revvity, MA, USA) was added to each filter well and left to equilibrate for 2h. Filter‐bound radioactivity was counted in a MicroBeta2 LumiJet scintillation counter (Revvity, MA, USA). Binding curves were fitted with one site non‐linear regression. Binding affinity (pKi and Ki) for each compound was calculated from the […] values with the Cheng‐Prusoff equation from two separate experiments.

5‐HT2C receptor = molecular target: T3, 5‐HT2C receptor (Rattus norvegicus, UniProt P08909); assay: 5‐HT2C competition binding assay ([3H]mesulergine, frontal cortex membranes); conditions: 5 nM [3H]mesulergine
T3 construct: 10 μM pargyline and 160μg of the frontal cortex membrane suspension; from tissue; host or cells: rat (Sprague-Dawley) frontal cortex membranes
T3 sequence (P08909 33-460): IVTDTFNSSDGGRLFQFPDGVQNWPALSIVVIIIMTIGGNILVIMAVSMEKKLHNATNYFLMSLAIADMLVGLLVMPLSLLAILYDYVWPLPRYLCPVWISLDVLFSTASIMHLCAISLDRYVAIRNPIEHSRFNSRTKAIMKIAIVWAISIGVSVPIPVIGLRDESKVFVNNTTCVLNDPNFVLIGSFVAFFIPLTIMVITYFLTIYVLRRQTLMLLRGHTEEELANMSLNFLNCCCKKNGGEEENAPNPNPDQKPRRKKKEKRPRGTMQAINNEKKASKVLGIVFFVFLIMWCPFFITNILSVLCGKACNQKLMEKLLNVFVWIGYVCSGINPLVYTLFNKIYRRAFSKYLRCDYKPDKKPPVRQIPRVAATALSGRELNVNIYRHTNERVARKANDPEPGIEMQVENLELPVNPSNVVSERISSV
Protocol: as §1

5‐HT2A receptor [4] = molecular target: T2, 5‐HT2A receptor; assay: Inhibition of 5‐HT‐evoked contractions in isolated rat ileum; parameters: segments (1–1.5 cm) of ileum were removed, flushed of luminal contents, and placed in Krebs solution; from tissue; host or cells: isolated rat (Sprague-Dawley) ileum segments; conditions: 5‐HT 10^−5 M, compounds 10^−8–10^−5 M
Protocol: Male rats (Sprague‐Dawley, 160–200 g; Charles River Laboratories; Calco, Italy) were manipulated and cared for in strict compliance with the principles of laboratory animal care. Experimental procedures were conducted in conformity with Italian (D.L. 26/2014) and European (directive 2010/63/EU) regulations on the protection of animals used for scientific purposes and approved by the Italian Ministry. Animal housing complied with recent pharmacological guidance.^[ [40] ^] All animals weighing 160–200 g were used after a 1‐week acclimation period (temperature 23 ± 2 °C; humidity 60%, free access to water and standard food).
The segments were prepared as previously described:^[ [41] ^] the segments were set up in such a way as to record contractions mainly from the longitudinal axis, in an organ bath containing 20 mL of Krebs solution, bubbled with 95% O2 and 5% CO2 and maintained at 37 °C. The tissues were connected to an isotonic transducer (load: 0.5 g), connected to Power Lab system (Ugo Basile, Comerio, Italy). Ileal segments were equilibrated for 60 min^[ [16] ^] followed by three repeated additions of submaximal concentration of 5‐HT (10^−5 M) in order to record stable control contractions. […] The contact time for each concentration was 10 min. The compounds were dissolved in DMSO. […] Results are expressed as mean (SEM). […] The IC50 and Emax values were calculated with the aid of a computer program (GraphPad Prism 5).

[5] = 95% CI in brackets, read-out: 5‐HT2A Ki (95% CI)
[6] = 95% CI in brackets, read-out: 5‐HT1A Ki (95% CI)
[7] = read-out: 5‐HT1A pKi (converted)
[8] = 95% CI in brackets, read-out: 5‐HT2C Ki (95% CI)
[9] = 95% CI in brackets, read-out: EC50 (95% CI, μM), 5‐HT1A receptor G‐protein stimulation
[10] = read-out: 5‐HT2C pKi (converted)

SMILES	Emax (5‐HT1A receptor [1])	Emax (%) ± SEM, 5‐HT1A receptor G‐protein stimulation (5‐HT1A receptor [1])	pEC50, 5‐HT1A receptor G‐protein stimulation (5‐HT1A receptor [1])	EC50 (95% CI, μM), 5‐HT1A receptor G‐protein stimulation (5‐HT1A receptor [1]; 95% CI in brackets)	agonist activity for the 5‐HT1A receptor (classification in words) (5‐HT1A receptor [1])	Ki (5‐HT2A receptor [2]; [5])	Ki (5‐HT1A receptor [3]; [6])	Ki (5‐HT1A receptor [3]; [7])	Ki (5‐HT2C receptor; [8])	EC50 (5‐HT1A receptor [1]; [9])	Ki (5‐HT2C receptor; [10])	also measured
CCCN(CCC)C1CCc2cccc(O)c2C1 (stereo not shown) [8‐OH‐DPAT, 8‐hydroxy‐dipropylaminotetraline, reference compound]	177 ± 1.2%	–	–	–	–	–	–	–	–	–	–	–
O=C(NCCCN1CCN(c2ccc(C3=NCCS3)cc2)CC1)c1ccccn1 [FG‐3, N‐(3‐(4‐(4‐(4,5‐dihydrothiazol‐2‐yl) phenyl) piperazin‐1‐yl) propyl) picolinamide]	–	No activity	No activity	No activity	do not express any agonist activity	6.3 µM	4.5 µM	4.57 µM	1.46 µM	–	–	–
O=C1C2C3C=CC(C3)C2C(=O)N1OCCCN1CCN(c2ccc(C3=NCCS3)cc2)CC1 (stereo not shown) [FG‐9, 2‐(3‐(4‐(4‐(4,5‐dihydrothiazol‐2‐yl) phenyl) piperazin‐1‐yl) propoxy)‐3a,4,7,7a‐tetrahydro‐1H‐4,7‐methanoisoindole‐1,3(2H)‐dione]	–	No activity	No activity	No activity	do not express any agonist activity	14.1 µM	–	72.4 µM	2.03 µM	–	–	–
O=C1C2C3C=CC(O3)C2C(=O)N1OCCCN1CCN(c2ccccc2C2=NCCS2)CC1 (stereo not shown) [FG‐10, 2‐(3‐(4‐(2‐(4,5‐dihydrothiazol‐2‐yl) phenyl) piperazin‐1‐yl) propoxy)‐3a,4,7,7a‐tetrahydro‐1H‐4,7‐epoxyisoindole‐1,3(2H)‐dione]	120 ± 14.9%	–	–	–	–	3.84 µM	0.61 µM	–	–	52 µM	3.24 µM	–
O=C1C2C3C=CC(O3)C2C(=O)N1OCCCN1CCN(c2cccc(C3=NCCS3)c2)CC1 (stereo not shown) [FG‐11, 2‐(3‐(4‐(3‐(4,5‐dihydrothiazol‐2‐yl) phenyl) piperazin‐1‐yl) propoxy)‐3a,4,7,7a‐tetrahydro‐1H‐4,7‐epoxyisoindole‐1,3(2H)‐dione]	–	No activity	No activity	No activity	do not express any agonist activity	1.48 µM	2.2 µM	–	40.5 µM	–	–	Emax (5‐HT2A receptor [4]; read-out: EMAX, maximal inhibitory effect on 5‐HT‐induced contractions in the rat ileum): 28.7%; IC50 (5‐HT2A receptor [4]; IC50, inhibition of 5‐HT‐induced contractions in the rat ileum, contact time 10 min): 4.39 µM
O=C1C2C3C=CC(O3)C2C(=O)N1OCCCN1CCN(c2ccc(C3=NCCS3)cc2)CC1 (stereo not shown) [FG‐12, 2‐(3‐(4‐(4‐(4,5‐dihydrothiazol‐2‐yl) phenyl) piperazin‐1‐yl) propoxy)‐3a,4,7,7a‐tetrahydro‐1H‐4,7‐epoxyisoindole‐1,3(2H)‐dione]	135 ± 18.2%	–	–	–	–	6.93 µM	–	63.1 µM	0.286 µM	46.2 µM	–	–
O=C(NCCCN1CCN(c2ccccc2C2=NCCS2)CC1)C1CC2C=CC1C2 (stereo not drawn) [FG‐13, Exo‐N‐(3‐(4‐(2‐(4,5‐dihydrothiazol‐2‐yl)phenyl)piperazin‐1‐yl)propyl) bicyclo [2.2.1] hept‐5‐ene‐2‐carboxamide]	132 ± 8.4%	–	–	–	–	3.54 µM	0.22 µM	–	–	79.6 µM	0.794 µM	–
O=C(NCCCN1CCN(c2ccc(C3=NCCS3)cc2)CC1)C1CC2C=CC1C2 (stereo not drawn) [FG‐15, Exo‐N‐(3‐(4‐(4‐(4,5‐dihydrothiazol‐2‐yl)phenyl)piperazin‐1‐yl)propyl) bicyclo [2.2.1] hept‐5‐ene‐2‐carboxamide]	137 ± 4.7%	–	–	–	–	–	–	17.8 µM	2.36 µM	88.1 µM	2.4 µM	EC50 (5‐HT1A receptor [1]; read-out: pEC50, 5‐HT1A receptor G‐protein stimulation (converted)): 89.1 µM; Ki (5‐HT2A receptor [2]; read-out: 5‐HT2A pKi (converted)): 4.47 µM
COc1cc(OC)c(C(=O)CCCCN2CCC3(CC2)NC(=O)NC3=O)cc1NS(=O)(=O)c1ccc(C(F)(F)F)cc1 [RS‐102 221, reference compound]	–	–	–	–	–	–	–	–	0.0057 µM	–	–	5‐HT2C pKi (5‐HT2C receptor): 8.24 ± 0.23

— article PMC12321279, “Novel 4,5‐Dihydrothiazole‐Phenylpiperazine Derivatives: Synthesis, Docking Studies and Pharmacological Evaluation as Serotonergic Agents” (Chemmedchem, 2025)
